The record followed here is ChEMBL document CHEMBL5465560, “Selectivity Literature for EUbOPEN Chemogenomic Library” (2024).

Experiment [1] deals with T1, Aurora kinase C (Homo sapiens) (UniProt Q9UQB9).
T1 sequence (whole entry): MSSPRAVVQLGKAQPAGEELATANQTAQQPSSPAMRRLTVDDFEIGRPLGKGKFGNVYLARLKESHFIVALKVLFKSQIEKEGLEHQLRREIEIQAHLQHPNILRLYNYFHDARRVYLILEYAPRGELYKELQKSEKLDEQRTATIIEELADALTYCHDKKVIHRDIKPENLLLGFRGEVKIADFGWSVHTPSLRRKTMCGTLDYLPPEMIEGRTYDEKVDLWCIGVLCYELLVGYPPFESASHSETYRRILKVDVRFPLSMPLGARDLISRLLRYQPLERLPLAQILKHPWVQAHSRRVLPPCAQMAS
The experiment can be described thus: Selectivity interaction (Ambit KINOMEscan and KiNATiv profiling in Jurkat cells) EUB0000090b AURKC. The class given is cell-based. The conditions noted are these: at 1 µM.

Experiment [2] has as its target Tyrosine-protein kinase Fer (Homo sapiens) (UniProt P16591). The experiment in a line: Selectivity interaction (ActivX KiNativ screen (ex vivo kinase selectivity in human PBMCs)) EUB0001619a FER. The class given is cell-based. The conditions noted are these: PBMC, at 1 µM.
The target in experiment [3] is T2, Mitogen-activated protein kinase kinase kinase 3 (Homo sapiens) (UniProt Q99759).
T2 sequence (whole entry): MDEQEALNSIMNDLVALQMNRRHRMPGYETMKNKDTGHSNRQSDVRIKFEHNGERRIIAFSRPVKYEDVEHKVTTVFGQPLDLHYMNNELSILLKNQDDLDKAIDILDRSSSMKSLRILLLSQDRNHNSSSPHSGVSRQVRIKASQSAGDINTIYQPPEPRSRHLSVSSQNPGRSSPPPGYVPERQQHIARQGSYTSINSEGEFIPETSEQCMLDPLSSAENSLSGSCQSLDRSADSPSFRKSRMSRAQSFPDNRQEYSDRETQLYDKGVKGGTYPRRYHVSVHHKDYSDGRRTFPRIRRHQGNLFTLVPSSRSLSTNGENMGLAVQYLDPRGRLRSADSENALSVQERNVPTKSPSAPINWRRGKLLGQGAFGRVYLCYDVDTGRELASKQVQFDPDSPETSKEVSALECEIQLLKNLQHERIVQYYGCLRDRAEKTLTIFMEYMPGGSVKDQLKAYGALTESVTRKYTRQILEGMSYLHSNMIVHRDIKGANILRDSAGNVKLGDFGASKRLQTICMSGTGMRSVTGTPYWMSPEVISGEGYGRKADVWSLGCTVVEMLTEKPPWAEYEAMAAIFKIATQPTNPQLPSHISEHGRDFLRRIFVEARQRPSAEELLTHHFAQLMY
The experiment can be described thus: Selectivity interaction (ActivX KiNativ screen (kinase selectivity in THP-1 cell lysates)) EUB0000639a MAP3K3. The class given is subcellular. To be noted: lysate, at 0.2 µM.

Experiment [4] deals with Ribosomal protein S6 kinase alpha-3 (Homo sapiens, UniProt P51812). The experiment can be described thus: Selectivity interaction (ActivX KiNativ screen (kinase selectivity in THP-1 cell lysates)) EUB0000639a RPS6KA3. The class given is subcellular. The conditions noted are these: lysate, at 1 µM.
Chain of Ribosomal protein S6 kinase alpha-3 (P51812 whole entry): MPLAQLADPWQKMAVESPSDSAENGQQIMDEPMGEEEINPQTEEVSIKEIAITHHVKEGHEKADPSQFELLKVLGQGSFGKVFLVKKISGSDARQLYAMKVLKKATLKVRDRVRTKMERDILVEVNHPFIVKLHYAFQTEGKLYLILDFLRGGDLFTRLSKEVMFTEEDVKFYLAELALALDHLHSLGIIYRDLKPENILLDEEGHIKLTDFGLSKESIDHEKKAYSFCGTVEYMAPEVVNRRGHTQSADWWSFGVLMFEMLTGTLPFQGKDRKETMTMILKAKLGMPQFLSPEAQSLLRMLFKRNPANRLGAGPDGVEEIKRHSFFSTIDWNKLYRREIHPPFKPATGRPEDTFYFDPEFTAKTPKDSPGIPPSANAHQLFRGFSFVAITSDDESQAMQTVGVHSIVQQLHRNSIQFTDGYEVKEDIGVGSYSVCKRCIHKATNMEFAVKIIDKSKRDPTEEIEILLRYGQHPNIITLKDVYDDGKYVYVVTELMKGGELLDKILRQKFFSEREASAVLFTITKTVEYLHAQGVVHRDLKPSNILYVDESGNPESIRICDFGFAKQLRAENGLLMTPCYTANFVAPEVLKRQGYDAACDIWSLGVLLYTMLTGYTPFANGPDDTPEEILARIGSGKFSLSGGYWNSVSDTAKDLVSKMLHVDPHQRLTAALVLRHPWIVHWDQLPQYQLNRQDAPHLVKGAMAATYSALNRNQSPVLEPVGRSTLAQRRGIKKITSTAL
Experiment [5] concerns the target T3, Megakaryocyte-associated tyrosine-protein kinase (Homo sapiens) (UniProt P42679).
T3 sequence (whole entry): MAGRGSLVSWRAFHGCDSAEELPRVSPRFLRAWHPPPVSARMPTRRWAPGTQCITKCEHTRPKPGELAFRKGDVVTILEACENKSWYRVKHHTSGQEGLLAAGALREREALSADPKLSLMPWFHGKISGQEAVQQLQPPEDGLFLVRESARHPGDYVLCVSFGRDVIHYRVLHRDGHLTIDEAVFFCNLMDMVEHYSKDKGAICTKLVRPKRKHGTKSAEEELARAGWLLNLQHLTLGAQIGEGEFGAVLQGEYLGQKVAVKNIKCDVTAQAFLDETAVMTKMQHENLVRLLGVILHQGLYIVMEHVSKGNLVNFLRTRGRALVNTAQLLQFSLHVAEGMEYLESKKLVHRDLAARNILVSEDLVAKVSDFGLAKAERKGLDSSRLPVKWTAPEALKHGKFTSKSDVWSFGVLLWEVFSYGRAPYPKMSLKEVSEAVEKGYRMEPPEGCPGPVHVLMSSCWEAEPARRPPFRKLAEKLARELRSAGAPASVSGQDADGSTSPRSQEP
The experiment can be described thus: Selectivity interaction (KinomeScan (DiscoverX)) EUB0001049a MATK. To be noted: at 1 µM.

In experiment [6] the target is Cyclin-dependent kinase 2/cyclin E1 (Homo sapiens) (UniProt P24864+P24941). The experiment can be described thus: (§1) Selectivity interaction (ProQinase) EUB0000171b CDK2. The experiment is classed as protein-complex assay.
The target of experiment [7] is CDK2/Cyclin A2 (Homo sapiens) (UniProt P24941+P20248). The experiment is described as §1. The experiment is classed as protein-complex assay.

Chain of Tyrosine-protein kinase Fer (Homo sapiens) (P16591 whole entry, looked up): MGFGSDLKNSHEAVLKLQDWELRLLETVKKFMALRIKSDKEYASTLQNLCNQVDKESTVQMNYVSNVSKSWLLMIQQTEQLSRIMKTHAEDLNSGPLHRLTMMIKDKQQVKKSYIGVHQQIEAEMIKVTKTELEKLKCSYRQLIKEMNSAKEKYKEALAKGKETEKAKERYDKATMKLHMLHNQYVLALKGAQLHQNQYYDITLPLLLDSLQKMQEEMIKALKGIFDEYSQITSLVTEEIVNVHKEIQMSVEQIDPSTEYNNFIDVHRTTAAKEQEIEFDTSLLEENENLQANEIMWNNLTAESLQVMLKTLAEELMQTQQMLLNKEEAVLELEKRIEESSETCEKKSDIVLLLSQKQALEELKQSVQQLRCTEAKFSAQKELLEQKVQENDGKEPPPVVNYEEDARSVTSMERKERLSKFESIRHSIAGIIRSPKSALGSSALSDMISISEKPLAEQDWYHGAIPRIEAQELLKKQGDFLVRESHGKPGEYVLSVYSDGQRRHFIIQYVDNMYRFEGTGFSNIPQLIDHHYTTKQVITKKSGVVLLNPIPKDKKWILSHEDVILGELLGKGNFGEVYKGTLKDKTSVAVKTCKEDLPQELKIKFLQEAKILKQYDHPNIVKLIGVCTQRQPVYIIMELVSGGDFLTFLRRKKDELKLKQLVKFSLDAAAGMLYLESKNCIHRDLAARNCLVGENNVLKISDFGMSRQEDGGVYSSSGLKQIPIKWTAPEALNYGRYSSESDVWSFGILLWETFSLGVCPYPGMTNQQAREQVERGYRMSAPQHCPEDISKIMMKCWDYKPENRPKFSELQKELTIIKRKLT

In experiment [1], `CN(C)C/C=C/C(=O)Nc1ccc(C(=O)N2CCCC(Nc3ncc(Cl)c(-c4c[nH]c5ccccc45)n3)C2)cc1` (centres undefined) returned a % of control of 100%.
As to `N#Cc1cccc(-c2c[nH]c3ncnc(N4CCOCC4)c23)c1`, the % of inhibition in experiment [2] amounted to 2%.
Turning to `CC[C@@H]1[C@H](F)C(=O)N[C@@H]1COc1nccc2cc(C(N)=O)c(OC)cc12` [ZIMLOVISERTIB], the % of inhibition is -0.9% in experiment [3] and -10.7% in experiment [4].
As to `COc1cc(Nc2nc(C)cc(-c3cnn4nc(OC)ccc34)n2)cc(C(F)(F)F)c1`, the % of control in experiment [5] stood at 100%.
Turning to `C=CC(=O)Nc1cccc(C(=O)Nc2ccc(Nc3cc(-c4[nH]c(SC)nc4C)ccn3)cc2)c1`, the % of control worked out at 88% in experiment [6] (at 1 µM), 62% in experiment [6] (at 5 µM), 78% in experiment [7] (at 1 µM) and 56% in experiment [7] (at 5 µM).
